{
  "source": "paper PMC12062019",
  "about": "“Therapeutic effects of medicinal and food-based traditional herbal couples on type 2 diabetes mellitus based on pharmacodynamics and pharmacokinetics” (Frontiers in Pharmacology, 2025)",
  "key": {"T2DM rats": {"test_system": "T2DM rats", "test": "Blood glucose and body weight in high-fat diet/STZ-induced T2DM rat model", "format": "in vivo", "details": "gavage once daily, weight first decreased then increased", "procedure": "The T2DM rat model was developed by intraperitoneal injection of streptozotocin (STZ). 60 male SD rats were acclimatised and reared for 1 week, then blood glucose and body weight were measured, and the rats were randomly divided into 10 in the normal group and 50 in the modelling group according to blood glucose and body weight. The T2DM rat was fed with high-fat chow for 4 weeks, and at the end of the 4 weeks, the rats were fasted for 12 h without food or water, and were injected with a one-time intraperitoneal injection of 35 mg/kg of 1% STZ solution. The normal group was fed with normal chow, and was given free access to drinking water, and was injected intraperitoneally with the same dose of citrate-sodium citrate buffer as that of the T2DM rat. The blood was collected from the tail vein for fasting blood glucose (FBG) measurement after 72 h. FBG of 16.7 mmol/L was considered successful in T2DM model replication. The T2DM rat model was successfully replicated.\nFor better drug delivery, we used a rotary evaporator to concentrate the CR-PLR decoction, CR decoction and PLR decotion to crude drug (1 g/mL), respectively. […]"}, "gut flora of rats": {"test_system": "gut flora of rats", "test": "16s rDNA sequencing of gut flora of rats", "format": "in vivo, rat", "details": "T2DM rats"}, "[1]": {"parameters": "method as in Wang et al., 2020", "details": "poor lipid and water solubility; ref Wang et al., 2020; cited from earlier work"}, "HT29 cells": {"test_system": "HT29 cells", "test": "CCK-8 cell viability, HT29", "details": "HT29, 24 h, concentrations up to 65 μg/mL", "protocol": "(§1) HT29 cells were grown in McCoy’s 5A medium containing 10% fetal bovine serum, 1% non-essential amino acids, and 1% penicillin-streptomycin, and other conditions were the same as those for Caco-2 cells culture, with the medium being changed every other day. […] They were incubated at 37°C for 24 h to allow cell adhesion. […] After this, the medium was removed and the cells were co-incubated with 10 μL of CCK-8 solution for 4 h. The absorbance values (OD) were measured at 450 nm using a SpectraMax 190 Enzyme Marker. The blank group consisted of wells that were not inoculated with cells, and the control group included wells containing cells but not exposed to the sample solution. Each group was performed in six replicates. Cell viability was calculated using the following formula: Cell activity%=Experimental Group OD value−Blank Group OD value/Control Group OD value−Blank Group OD value×100%"}, "Caco-2 cells": {"test_system": "Caco-2 cells", "test": "CCK-8 cell viability, Caco-2", "details": "Caco-2, 24 h, concentrations up to 65 μg/mL", "protocol": "as §1"}, "[2]": {"details": "Genus level, compared to the model group"}},
  "data": [
    {"smiles": "CN(C)C(=N)N=C(N)N", "note": "[metformin]", "values": [
      {"measurement": "weeks of administration after which body weight increased", "setting": "T2DM rats", "value": 4, "unit": "weeks"},
      {"measurement": "percentage of Lachnospiraceae flora", "setting": "gut flora of rats; Family level", "value": 8.91, "unit": "%"},
      {"measurement": "percentage of Lactobacillaceae flora", "setting": "gut flora of rats; Family level", "value": 8.88, "unit": "%"},
      {"measurement": "percentage of Ruminococcaceae flora", "setting": "gut flora of rats; Family level", "value": 9.47, "unit": "%"},
      {"measurement": "percentage of Ligilactobacillus flora", "setting": "gut flora of rats; Genus level", "value": 3.69, "unit": "%"},
      {"measurement": "percentage of lactobacilli flora", "setting": "gut flora of rats; Genus level", "value": 4.68, "unit": "%"},
      {"measurement": "percentage of Akkermansia flora", "setting": "gut flora of rats; [2]", "value": "increased"},
      {"measurement": "percentage of Ruminococcus flora", "setting": "gut flora of rats; [2]", "value": "increased"},
      {"measurement": "number of independent OTUs", "setting": "gut flora of rats; gut flora, Venn plot", "value": 2051}
    ]},
    {"smiles": "O=c1c(-c2ccc(O)cc2)coc2c([C@@H]3O[C@H](CO)[C@@H](O)[C@H](O)[C@H]3O)c(O)ccc12", "note": "[PUR, Puerarin]", "values": [
      {"measurement": "BCS classification system class", "setting": "[1]", "value": "class IV"},
      {"measurement": "relative cell viability", "setting": "HT29 cells", "value": "above 90%"},
      {"measurement": "relative cell viability", "setting": "Caco-2 cells", "value": "above 90%"}
    ]}
  ]
}
